Experimental data published in patent US10947188B2, “Small molecule ferroptosis inducers” (THE TRUSTEES OF COLUMBIA UNIVERSITY IN THE CITY OF NEW YORK, priority 2016, dated 2021).

Tests used:
[1] = tested on: HT-1080; assay: Modulatory profiling: Alamar Blue viability, lethal compound cotreated with death modulator (EC50, AUC); assay type: cell-based; design: AUC, modulator HT.3MA / AUC, modulator HT.ALLN / AUC HT.ATA / AUC HT.ActD / AUC HT.BHA / AUC HT.BHT / AUC HT.BocD / AUC HT.CHX / AUC HT.Co2+ / AUC HT.DPQ / AUC HT.EGTA / AUC HT.Lmim / AUC HT.NAD+ / AUC HT.Nec-1 / AUC HT.SP600125 / AUC HT.TLCK / AUC HT.U0126: unit not given beside the values; conditions: for AUC HT.ATA: HT-1080, modulator ATA; for AUC HT.ActD: HT-1080, modulator ActD; for AUC HT.BHA: HT-1080, modulator BHA; for AUC HT.BHT: HT-1080, modulator BHT; for AUC HT.BocD: HT-1080, modulator BocD; for AUC HT.CHX: HT-1080, modulator CHX; for AUC HT.Co2+: HT-1080, modulator Co2+; for AUC HT.CspA: HT-1080, modulator CspA; for AUC HT.DPQ: HT-1080, modulator DPQ; for AUC HT.EGTA: HT-1080, modulator EGTA; for AUC HT.Gd3+: HT-1080, modulator Gd3+; for AUC HT.LNAME: HT-1080, modulator LNAME; for AUC HT.Lmim: HT-1080, modulator Lmim; for AUC HT.NAD+: HT-1080, modulator NAD+; for AUC HT.NMMA: HT-1080, modulator NMMA; for HT.atoc (AUC) / HT.bCarotene (AUC) / HT.deferox (AUC) / HT.digoxin (AUC) / HT.trolox (AUC) / HT.zVAD (AUC): HT-1080; for HT.atoc (AUC): modulator atoc; for HT.bCarotene (AUC): modulator bCarotene; for HT.deferox (AUC): modulator deferox; for HT.digoxin (AUC): modulator digoxin; for HT.trolox (AUC): modulator trolox; for HT.zVAD (AUC): modulator zVAD; as to AUC HT.BHA: reference of the scale not given here; as to AUC HT.EGTA: reference of the scale not given here
[2] = tested on: BJeLR; assay: as above; assay type: cell-based, human; design: AUC, modulator BJ.Gd3+ / AUC, modulator BJ.LNAME / AUC, modulator BJ.Lmin / AUC, modulator BJ.3MA / AUC, modulator BJ.ALLN / AUC, modulator BJ.Boc D / AUC, modulator BJ.CHX / AUC, modulator BJ.Co2+ / AUC, modulator BJ.Nec-1 / AUC, modulator BJ.Pepstatin / AUC, modulator BJ.TLCK / AUC, modulator BJ.atoc / AUC, modulator BJ.trolox / AUC, modulator BJ.zVAD: unit not given beside the values; conditions: BJeLR cells, modulatory profile value (AUC); for AUC, modulator BJ.3MA: lethal compound cotreated with modulator 3MA; for AUC, modulator BJ.ALLN: lethal compound cotreated with modulator ALLN; for AUC, modulator BJ.Boc D: lethal compound cotreated with modulator Boc D; for AUC, modulator BJ.CHX: lethal compound cotreated with modulator CHX; for AUC, modulator BJ.Co2+: lethal compound cotreated with modulator Co2+; for AUC, modulator BJ.DPQ: lethal compound cotreated with modulator DPQ; for AUC, modulator BJ.Gd3+: lethal compound cotreated with modulator Gd3+; for AUC, modulator BJ.LNAME: lethal compound cotreated with modulator LNAME; for AUC, modulator BJ.Lmin/NAD+: lethal compound cotreated with modulator Lmin/NAD+; for AUC, modulator BJ.Lmin: lethal compound cotreated with modulator Lmin; for AUC, modulator BJ.NAD+: lethal compound cotreated with modulator NAD+; for AUC, modulator BJ.NMMA: lethal compound cotreated with modulator NMMA; for AUC, modulator BJ.Nec-1: lethal compound cotreated with modulator Nec-1; for AUC, modulator BJ.Pepstatin: lethal compound cotreated with modulator Pepstatin; for AUC, modulator BJ.TLCK: lethal compound cotreated with modulator TLCK; as to AUC, modulator BJ.3MA: reference of the scale not given here; as to AUC, modulator BJ.ALLN: reference of the scale not given here; as to AUC, modulator BJ.Boc D: reference of the scale not given here; as to AUC, modulator BJ.CHX: reference of the scale not given here; as to AUC, modulator BJ.Co2+: reference of the scale not given here; as to AUC, modulator BJ.DPQ: reference of the scale not given here; as to AUC, modulator BJ.Gd3+: reference of the scale not given here; as to AUC, modulator BJ.LNAME: reference of the scale not given here; as to AUC, modulator BJ.NAD+: reference of the scale not given here; as to AUC, modulator BJ.NMMA: reference of the scale not given here; as to AUC, modulator BJ.Nec-1: reference of the scale not given here; as to AUC, modulator BJ.Pepstatin: reference of the scale not given here; as to AUC, modulator BJ.TLCK: reference of the scale not given here

Structure (SMILES) | AUC HT.ATA [1] | AUC HT.ActD [1] | AUC HT.BHA [1] | AUC HT.BHT [1] | AUC HT.BocD [1] | AUC HT.CHX [1] | AUC HT.Co2+ [1] | AUC HT.CspA [1] | AUC HT.DPQ [1] | AUC HT.EGTA [1] | AUC HT.Gd3+ [1] | AUC HT.LNAME [1] | AUC HT.Lmim [1] | AUC HT.NAD+ [1] | AUC HT.NMMA [1] | HT.atoc (AUC) [1] | HT.bCarotene (AUC) [1] | HT.deferox (AUC) [1] | HT.digoxin (AUC) [1] | HT.trolox (AUC) [1] | also measured
CC(C(NNC(=O)c1ccc(C(F)(F)F)cc1)c1ccc(Br)cc1)[N+](=O)[O-] (stereo not drawn) [CIL87] | 0.1137 | −0.007586 | −0.003358 | −0.08317 | −0.007134 | 0.0673 | 0.03163 | −0.05358 | −0.02562 | 0.005305 | −0.02756 | 0.005257 | −0.002116 | −0.001926 | −0.01237 | 0.05929 | 0.01927 | 0.07034 | 0.04582 | −0.03188 | HT.zVAD (AUC) [1]: 0.02258; AUC, modulator BJ.3MA [2]: −0.002764; AUC, modulator BJ.ALLN [2]: −0.08721; AUC, modulator BJ.Boc D [2]: −0.0134; AUC, modulator BJ.CHX [2]: 0.295; AUC, modulator BJ.Co2+ [2]: 0.1416; AUC, modulator BJ.DPQ [2]: −0.03202; AUC, modulator BJ.Gd3+ [2]: 0.0149; AUC, modulator BJ.LNAME [2]: 0.02319; AUC, modulator BJ.Lmin/NAD+ [2]: 0.07639; AUC, modulator BJ.Lmin [2]: 0.0007714; AUC, modulator BJ.NAD+ [2]: −0.03293; AUC, modulator BJ.NMMA [2]: −0.007384; AUC, modulator BJ.Nec-1 [2]: −0.0482; AUC, modulator BJ.Pepstatin [2]: −0.03283; AUC, modulator BJ.TLCK [2]: 0.003206
CCC(C(NNC(=O)c1ccc(C(F)(F)F)cc1)c1ccc(C(F)(F)F)cc1)[N+](=O)O (stereo not drawn) [CIL88] | 0.08122 | −0.03102 | 0.007109 | −0.09988 | 0.02037 | 0.04478 | 0.01652 | −0.05842 | −0.01431 | 0.01878 | −0.03651 | 0.02199 | 0.01907 | 0.007478 | −0.000615 | 0.07162 | 0.02318 | 0.0616 | 0.05526 | −0.01577 | HT.zVAD (AUC) [1]: 0.04371; AUC, modulator BJ.3MA [2]: 0.03093; AUC, modulator BJ.ALLN [2]: −0.1424; AUC, modulator BJ.Boc D [2]: −0.01445; AUC, modulator BJ.CHX [2]: 0.2354; AUC, modulator BJ.Co2+ [2]: 0.05379; AUC, modulator BJ.DPQ [2]: −0.03608; AUC, modulator BJ.Gd3+ [2]: −0.03652; AUC, modulator BJ.LNAME [2]: 0.0201; AUC, modulator BJ.Lmin/NAD+ [2]: 0.03399; AUC, modulator BJ.Lmin [2]: −0.01241; AUC, modulator BJ.NAD+ [2]: −0.03559; AUC, modulator BJ.NMMA [2]: −0.01217; AUC, modulator BJ.Nec-1 [2]: −0.03649; AUC, modulator BJ.Pepstatin [2]: −0.06126; AUC, modulator BJ.TLCK [2]: 0.0209
CCOC(=O)[C@@H]1[C@@H](c2ccccc2)C(=O)CCN1NC(=O)c1ccccc1 [CIL89] | 0.05896 | 0.03977 | −0.006147 | −0.1188 | −0.004667 | −0.008693 | 0.008377 | −0.06906 | −0.005287 | 0.04226 | −0.04594 | 0.003061 | 0.02342 | 0.02662 | −0.009041 | 0.0671 | 0.01857 | 0.04587 | 0.01146 | −0.02147 | HT.zVAD (AUC) [1]: 0.03058; AUC, modulator BJ.3MA [2]: −0.01648; AUC, modulator BJ.ALLN [2]: −0.1204; AUC, modulator BJ.Boc D [2]: 0.03243; AUC, modulator BJ.CHX [2]: 0.1968; AUC, modulator BJ.Co2+ [2]: 0.01721; AUC, modulator BJ.DPQ [2]: −0.02598; AUC, modulator BJ.Gd3+ [2]: −0.07038; AUC, modulator BJ.LNAME [2]: 0.03646; AUC, modulator BJ.Lmin/NAD+ [2]: 0.04069; AUC, modulator BJ.Lmin [2]: 0.03551; AUC, modulator BJ.NAD+ [2]: −0.03932; AUC, modulator BJ.NMMA [2]: −0.02344; AUC, modulator BJ.Nec-1 [2]: −0.02957; AUC, modulator BJ.Pepstatin [2]: −0.006292; AUC, modulator BJ.TLCK [2]: −0.06676
